Patent US20240216354A1, “IMMUNOMODULATORY IMIDE DRUGS AS ZETA-CHAIN-ASSOCIATED PROTEIN KINASE 70 (ZAP70) AGONISTS AND USES THEREOF” (Dana-Farber Cancer Institute, Inc., priority 2019, published 2024)

How the values were obtained:
[1] = target: T1, Zap-70 (Homo sapiens, UniProt P43403); experiment: Immunoblotting of p-Zap-70 in NK-92 cells; type: cell-based; conditions: 24 h, Pom 0.5 and 1 μM, CC-220 0.01, 0.1, 1 μM
T1 sequence (P43403 1-619): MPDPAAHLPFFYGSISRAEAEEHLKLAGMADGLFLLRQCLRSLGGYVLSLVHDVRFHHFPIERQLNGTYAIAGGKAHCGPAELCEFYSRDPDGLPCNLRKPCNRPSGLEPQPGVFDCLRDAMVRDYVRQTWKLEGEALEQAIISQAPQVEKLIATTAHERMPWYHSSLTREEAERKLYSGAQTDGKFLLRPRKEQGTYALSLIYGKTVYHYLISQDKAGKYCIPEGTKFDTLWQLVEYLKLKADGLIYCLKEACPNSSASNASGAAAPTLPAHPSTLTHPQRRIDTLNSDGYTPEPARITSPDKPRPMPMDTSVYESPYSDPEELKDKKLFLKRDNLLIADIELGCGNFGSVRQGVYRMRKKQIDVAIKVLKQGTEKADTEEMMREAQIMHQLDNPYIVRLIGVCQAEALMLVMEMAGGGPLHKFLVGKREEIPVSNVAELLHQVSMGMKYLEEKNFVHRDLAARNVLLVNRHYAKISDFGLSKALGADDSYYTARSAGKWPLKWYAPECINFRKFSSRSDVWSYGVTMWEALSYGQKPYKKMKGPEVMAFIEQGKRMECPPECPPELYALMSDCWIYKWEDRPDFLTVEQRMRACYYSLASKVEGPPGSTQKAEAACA
Method: (A) NK-92 cells were cultured with Pom (0.5 and 1 μM) for 24 h. Whole cell lysates were subjected to immunoblotting using indicated Abs. (B) NK-92 cells were cultured with Pom (0.5 and 1 μM) for 48 h. The cells were subsequently incubated with calcein-AM-stained U266 cells for 4 h at the indicated effector/target (E/T) ratios. Percent specific lysis was calculated as described previously. (C) NK-92 cells were cultured with Pom (0.03-3 μM) for 72 h. Cell growth was assessed by MTT assay. (D) NK-92 cells were transfected with scrambled (Sc) or Zap-70 siRNA (Zap70si). After 72 h incubation, cell viability was measured by trypan-blue dye exclusion. For B, C, and D, data are representative of at least two independent experiments, and values are expressed in mean±SD.
(A) NK-92 cells were cultured with Len (1 μM), Pom (0.01, 0.1, 1 μM) or CC-220 (0.01, 0.1, 1 μM) for 24 h. Whole cell lysates were subjected to immunoblotting using indicated Abs. (B) NK-92 cells were cultured with Pom (0.1 and 1 μM) or CC-220 ([…]) for 48 h. NK cell activity was measured by incubation with calcein AM-labeled U266 cells for 4 h at E/T ratio of 2.5/1. Percent specific lysis was calculated as previously described. Data are representative of three independent experiments, and values are expressed in mean±SD. *: p<0.01.

[2] = system: granzyme-B (GZM-B); experiment: GZM-B expression in primary NK cells (immunoblotting); type: cell-based, human; conditions: primary NK cells #1, #2, pomalidomide 0.3-1 μM, 24 h
Method: (A) KHYG1 cells were cultured with pomalidomide (0.25-1 μM) for 24 h. (B) Isolated primary NK cells from healthy volunteers (#1, #2) were cultured with pomalidomide (0.3-1 μM) for 24 h. (C) KHYG-1 cells were transfected with Scsi or Zap-70si. After 48 h, cells were cultured for 24 h in the absence or presence (0.5 μM) of pomalidomide. Whole cell lysates and RNAs were subjected to immunoblotting using indicated Abs.

[3] = target: T1, Zap-70; experiment: Pomalidomide-beads pull-down from Jurkat whole cell lysates; type: binding; set-up: purchased Origene, Rockville, MD; conditions: competitor 1 mM free pomalidomide, 1 h
Method: (A) Jurkat cells were transfected with scrambled (Sc) siRNA or Zap-70 siRNA. Whole cell lysates were subjected to immunoblotting using indicated Abs. (B) Jurkat cells were treated with lenalidomide ([…]) or pomalidomide (1 and 3 μM) for 4 h and 8 h. Whole cell lysates were subjected to p-Zap ELISA assay. (C) Jurkat whole cell lysates were incubated with pomalidomide-beads in the presence or absence of competitor (1 mM free pomalidomide) for 1 h. After elution, samples were subjected to immunoblotting using anti-Zap-70 Ab. (D) Saturation-transfer difference resulting from the binding of pomalidomide to Zap-70. Pomalidomide is at 320 μM and Zap-70 is approximately 2 μM in deuterated PBS solution. […] (E) Saturation-transfer difference resulting from the binding of pomalidomide to Zap-70 in the presence of 2.56 mMATP. Pomalidomide is at 320 μM and Zap-70 is approximately 2 μM in deuterated PBS solution. […] Note that both ATP and pomalidomide show binding the Zap-70. (F) Non-cell based Zap-70 kinase assay was carried out, according to manufacturer's protocol.

[4] = target: T1, Zap-70; experiment: Immunoblotting of p-Zap-70 in primary NK cells from healthy volunteers; type: cell-based; set-up: endogenous in cells; host or cells: primary PBMCs, primary T cells and primary NK cells from healthy volunteers; conditions: primary NK cells #1-#4, pomalidomide 0.5 μM, 24 h
Method: KHYG-1 cells were cultured with pomalidomide (0.25-1 μM) for 24 h. (A) Whole cell lysates were subjected to immunoblotting using indicated Abs. (B) KHYG-1 cells were incubated with calcein-AM-stained U266 cells for 4 h at the indicated effector/target (E/T) ratios. Percent specific lysis was calculated as described previously. (C) KHYG-1 cells were transfected with Scsi or Zap-70si, and then cultured with pomalidomide (0.25 μM) for 72 h in the absence of IL-2. Viable cell number was determined, and cells were then incubated with calcein AM-labeled U266 target cells for 4 h at indicated effector/target (E/T) ratios. Percent specific lysis was calculated as described previously. (D) After transfection with Scsi or Zap-70si, cells were cultured with lenalidomide or pomalidomide for 72 h. Cell growth was assessed by MTT assay. (E) KHYG-1 cells were transfected with scrambled (Scsi) or CRBNsi. The transfectants were then cultured with pomalidomide (0.5 μM) for 24 h, and whole cell lysates were subjected to immunoblotting using indicated Abs. The arrow indicates CRBN expression. (F) Primary NK cells (#1, #2, #3, #4) were isolated from healthy volunteer's PBMCs, as described in Materials and Methods. NK cells were cultured with pomalidomide (0.5 μM) for 24 h, and whole cell lysates were subjected to immunoblotting using indicated Abs. […] Percent specific lysis was calculated as previously described.

- p-Zap-70 (immunoblotting) [1]: induced increased p-Zap70
- competition of Zap-70 pull-down by Pom-beads [3]: inhibited by free pomalidomide
- p-Zap-70 (immunoblotting) [4]: upregulated p-Zap-70 in primary NK cells
Compound: Nc1cccc2c1C(=O)N(C1CCC(=O)NC1=O)C2=O (stereo not shown) [pomalidomide]
- GZM-B expression [2]: upregulated GZM-B expression
